According to US20230330093A1, “APPLICATION OF NITROGEN-CONTAINING SATURATED HETEROCYCLIC COMPOUND” (SHANGHAI PHARMACEUTICALS HOLDING CO., LTD., priority 2020, published 2023):
Where “and” joins values, the source holds several entries; their conditions need not be identical. Identical values can stand only once.

Tests used:
[1] = test system: rhesus monkeys with spontaneous chronic kidney disease; assay: Effect on glomerular filtration rate eGFRcreat-cys, 8-week administration; assay type: in vivo, Macaca mulatta (Rhesus Macaque)
Procedure: CKD-EPI rating […]-G3b, glomerular filtration rate eGFR: 30 59 ml/min/1.73 m^2; or moderate to severe increase in proteinuria (A2-A3): urine albumin/creatinine ratio (UACR)>15 mg/g-350 mg/g (4-6 hour urine collection), vs. age-matched control group 3±2 mg/g. In the trial, animals were brought in three stages. […] Glomerular filtration rate […]: creatinine (Cr-P), urea nitrogen (BUN) and cystatin (CysC) were detected, and the eGFR value was obtained by calculation. It was performed once before the administration and once every two weeks after the administration. […] ELISA kit was used for NT-proBNP test. [table] Selected […] in each group: 30 59 ml/min/1.73 m^2. The changes in the glomerular filtration rate of W8 and baseline were analyzed.

[2] = test system: rhesus monkeys with spontaneous chronic kidney disease (CKD); assay: Effect on UACR (proteinuria), 8-week oral administration; assay type: in vivo, Macaca mulatta (Rhesus Macaque); conditions: for MALB / UACR: per animal + Mean ± SD; for UACR change rate: 8 weeks vs baseline, negative = decrease; for UACR Benefit assessment: per animal
Procedure: CKD-EPI rating […]-G3b, glomerular filtration rate eGFR: 30 59 ml/min/1.73 m^2; or moderate to severe increase in proteinuria (A2-A3): urine albumin/creatinine ratio (UACR)>15 mg/g-350 mg/g (4-6 hour urine collection), vs. age-matched control group 3±2 mg/g. In the trial, animals were brought in three stages. […] ELISA kit was used for NT-proBNP test. [table]

[3] = 1 mg/kg oral once a day, 4 weeks
[4] = 1 mg/kg oral once a day, 4 weeks, mean
[5] = 1 mg/kg oral once a day, 8 weeks
[6] = 1 mg/kg oral once a day, 8 weeks, mean
[7] = 1 mg/kg oral once a day, Baseline
[8] = 1 mg/kg oral once a day, Baseline, mean
[9] = 2 mg/kg oral once a day, 4 weeks
[10] = 2 mg/kg oral once a day, 4 weeks, mean
[11] = 2 mg/kg oral once a day, 8 weeks
[12] = 2 mg/kg oral once a day, 8 weeks, mean
[13] = 2 mg/kg oral once a day, Baseline
[14] = 2 mg/kg oral once a day, Baseline, mean
[15] = 5 mg/kg oral once a day, 8 weeks
[16] = 5 mg/kg oral once a day, 8 weeks, mean
[17] = 5 mg/kg oral once a day, Baseline
[18] = 5 mg/kg oral once a day, Baseline, mean

## COC(=O)NCCCn1nc([C@@H](C)N(C(=O)[C@H]2CNCCO2)C2CC2)c2ccc(C)nc21.O=C(O)C[C@H](O)C(=O)O [malate of compound of Formula I]
[1]; 5 mg/kg qd (n = 6), Baseline, single animals and Mean ± SD, group mean
  eGFRcreat-cys: 49 ± 5 ml/min/1.73 m^2
[1]; 2-5 mg/kg qd for 8 weeks
  glomerular filtration rate eGFRcreat-cys improvement: can be significantly improved
[2]; [3]
  MALB: 4.6 mg/L and 34.1 mg/L and 1.4 mg/L and 5.1 mg/L and 1.3 mg/L
  UACR: 15.0 mg/g and 28.1 mg/g and 7.2 mg/g and 4.7 mg/g and 8.1 mg/g
[2]; [4]
  MALB: 9.3 ± 14.0 mg/L
  UACR: 12.6 mg/g
[2]; 1 mg/kg oral once a day, per animal + Mean ± SD (2/5 animals in statistics)
  UACR change rate: −39.14% and 8.44%
[2]; 1 mg/kg oral once a day, per animal + Mean ± SD (2/5 animals in statistics), mean
  UACR change rate: −15.35%
[2]; [5]
  UACR Benefit assessment: Benefit and No
  MALB: 5.2 mg/L and 38.4 mg/L and 0.8 mg/L and 7.6 mg/L and 1.1 mg/L
  UACR: 20.0 mg/g and 32.5 mg/g and 3.1 mg/g and 2.6 mg/g and 6.1 mg/g
[2]; [6]
  MALB: 10.6 ± 15.8 mg/L
  UACR: 12.9 ± 13.0 mg/g
[2]; 1 mg/kg oral once a day, 8 weeks, listed as malate of compound of formula I
  UACR Benefit assessment: The benefit was not obvious in one case
[2]; [7]
  MALB: 9.5 mg/L and 26.8 mg/L and 0.6 mg/L and 0.9 mg/L (2×)
  UACR: 32.8 mg/g and 30.0 mg/g and 2.9 mg/g and 1.6 mg/g and 4.1 mg/g
[2]; [8]
  MALB: 7.7 ± 11.3 mg/L
  UACR: 14.3 mg/g
[2]; 1 mg/kg qd, one animal
  UACR of W8 decreased by, compared with the baseline: 39%
[2]; [9]
  MALB: 1.0 mg/L and 12.5 mg/L and 5.3 mg/L and 103.7 mg/L and 2.4 mg/L
  UACR: 3.1 mg/g and 7.9 mg/g and 12.7 mg/g and 92.9 mg/g and 3.6 mg/g
[2]; [10]
  MALB: 25.0 ± 44.2 mg/L
  UACR: 24.0 mg/g
[2]; 2 mg/kg oral once a day, per animal + Mean ± SD (3/5 animals in statistics, p < 0.01 vs placebo)
  UACR change rate: −85.13% and −51.06% and −61.81%
[2]; 2 mg/kg oral once a day, per animal + Mean ± SD (3/5 animals in statistics, p < 0.01 vs placebo), mean
  UACR change rate: −66.00%
[2]; [11]
  UACR Benefit assessment: Benefit
  MALB: 3.0 mg/L and 0.4 mg/L and 0.6 mg/L and 69.5 mg/L and 3.6 mg/L
  UACR: 5.6 mg/g and 1.2 mg/g and 2.3 mg/g and 59.8 mg/g and 11.2 mg/g
[2]; [12]
  MALB: 15.4 ± 30.3 mg/L
  UACR: 16.0 ± 24.8 mg/g
[2]; 2 mg/kg oral once a day, 8 weeks, listed as malate of compound of formula I
  UACR Benefit assessment: all showed benefits
[2]; [13]
  MALB: 1.2 mg/L and 0.6 mg/L and 5.3 mg/L and 145.4 mg/L and 6.8 mg/L
  UACR: 3.5 mg/g and 2.5 mg/g and 15.3 mg/g and 122.1 mg/g and 29.3 mg/g
[2]; [14]
  MALB: 31.9 ± 63.5 mg/L
  UACR: 34.5 mg/g
[2]; 2 mg/kg qd, 3/5 animals with moderate to severe proteinuria, p<0.01 vs placebo
  W8 UACR decreased by on average, compared with the baseline: 66.00±17.42%
[2]; 2 mg/kg qd, three animals
  UACR of W8 decreased by, compared with the baseline: 50%-80%
[2]; 5 mg/kg oral once a day, per animal + Mean ± SD (4/6 animals in statistics, p < 0.05 vs placebo)
  UACR change rate: 16.75% and −64.10% and −68.62% and −72.14%
[2]; 5 mg/kg oral once a day, per animal + Mean ± SD (4/6 animals in statistics, p < 0.05 vs placebo), mean
  UACR change rate: −46.87 ± 36.93 %
[2]; [15]
  UACR Benefit assessment: all showed benefits and One animal showed no benefit and No and Benefit
  MALB: 72.4 mg/L and 1.2 mg/L and 3.4 mg/L and 112.3 mg/L and 0.3 mg/L and 21.6 mg/L
  UACR: 138.4 mg/g and 5.7 mg/g and 9.1 mg/g and 87.7 mg/g and 1.8 mg/g and 35.1 mg/g
[2]; [16]
  MALB: 35.2 ± 46.7 mg/L
  UACR: 46.3 ± 55.4 mg/g
[2]; [17]
  MALB: 93.2 mg/L and 4.3 mg/L and 46.5 mg/L and 59.3 mg/L and 2.1 mg/L and 26.0 mg/L
  UACR: 118.5 mg/g and 10.5 mg/g and 25.4 mg/g and 279.3 mg/g and 2.4 mg/g and 125.8 mg/g
[2]; [18]
  MALB: 38.6 ± 35.0 mg/L
  UACR: 93.7 ± 105.9 mg/g
[2]; 5 mg/kg qd, 3 animals
  UACR of W8 decreased by, compared with the baseline: 60%-70%
[2]; 5 mg/kg qd, 4/6 animals with moderate-to-severe proteinuria, p<0.05 vs placebo
  W8 UACR decreased by on average, compared with the baseline: 46.87±36.93%
[2]; 2-5 mg/kg qd for 8 weeks
  effect on UACR and eGFRcreat-cys compared with Valsartan: equivalent to the Valsartan group
  proteinuria (UACR) improvement: can be significantly improved
